Measurements as given in the METLIN SMRT retention time set (Domingo-Almenara et al. 2019).

Assay: gradient 5% acetonitrile 3 min, to 50% in 2 min, to 85% in 15 min, held 3 min, 100 µL/min
Settings: column: Zorbax Extend-C18 2.1 x 50 mm; eluents: water / acetonitrile, 0.1% formic acid
How it was run: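 Using water and acetonitrile that each contained 0.1% formic acid, mixtures of ~100 pure standards were separated at 100 μL/min on a Zorbax Extend-C18 column (2.1 × 50 mm, 1.8 μm). The HPLC fed a quadrupole time-of-flight mass spectrometer working in positive and negative ionization mode, with dead and dwell volumes of 40 μL and 900 μL. Data were acquired over 3 months. Retention time was read from computationally picked adduct peaks after manual inspection of each.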

Row | Structure (SMILES) | RP-LC retention time [s]
1 | CCOc1ccccc1C(=O)N1CCc2[nH]cnc2C12CCCCC2 | 641
2 | CC1(C)S[C@@H]2[C@H](NC(=O)Cc3ccccc3)C(=O)N2C1C(=O)O (some centres undefined) | 732
3 | O=C(NC1CCCCC1)c1ccc2c(c1)N(C(=O)c1ccc(F)cc1)CC2 | 944
4 | CCOC(=O)N1CCN(c2cc(-c3nc(-c4cccc(F)c4)no3)c3ccccc3n2)CC1 | 1420
5 | COc1cccc(NC(=O)C2CCN(S(=O)(=O)c3cc(C(=O)N4CCOCC4)cs3)CC2)c1 | 747
6 | CCn1cc(C2=CCN(C(=O)NCc3ccc(C)cc3)CC2)c2cccnc21 | 873
7 | CCC1Oc2ccc(S(=O)(=O)N3CCC(C(=O)N(CC)c4cccc(C)c4)CC3)cc2NC1=O (centres undefined) | 974
8 | Fc1ccccc1-c1noc(-c2nc(Cc3ccccc3)no2)n1 | 1160
9 | O=C(NCC1CC1)C1CCCN(c2cnc3nccnc3c2)C1 (centres undefined) | 643
10 | CCS(=O)(=O)N1CCC2(CC1)C(OC)CN2c1cccc(F)c1 (centres undefined) | 965
11 | CS(=O)(=O)N(Cc1cccnc1)C1CN(C(=O)c2ccc3ccccc3n2)C1 | 615
12 | CCOc1ccc(-c2noc(Cn3c(=O)n(C(C)CC)c(=O)c4ccccc43)n2)cc1OC (centres undefined) | 1140
13 | O=C(NCCCn1c(-c2ccncc2)nc2cccnc21)NCc1ccc(F)cc1 | 627
14 | CCn1ccc2sc(C)c(C(=O)NCCOC)c2c1=O | 610
15 | COc1ccc(CSc2nnc3c(S(=O)(=O)N4CCCC4)cccn23)cc1F | 825
16 | C[C@@H](C(=O)NCC1(CC(=O)O)CCCCC1)n1nnc2ccccc2c1=O | 748
17 | CCOC(=O)c1cc(S(=O)(=O)N2CCCC2C(=O)N2CCN(c3ccccn3)CC2)cn1C (centres undefined) | 600
18 | O=S(=O)(Nc1cc(F)cc(F)c1)c1ccc(-c2nnc(C3CCC3)o2)o1 | 930
19 | O=C(c1ccc(-c2cccs2)nc1)N1CCCC1 | 737
20 | Cc1ccc(-n2nc(C)c3sc(N4CCCC(C(=O)NC(C)(C)C)C4)nc32)cc1 (centres undefined) | 1170
21 | CC(C)n1nnc2cc(C(=O)N(C)CC(=O)Nc3ccc(Br)cc3F)ccc21 | 803
22 | CCCn1cc(CCNC(=O)c2ccc(Br)cc2)c2cccnc21 | 832
23 | Clc1ccc(-c2nc3ccc(Cl)cn3c2Nc2ccc3c(c2)OCO3)cc1 | 926

Row | Structure (SMILES) | RP-LC retention time [s]
24 | COc1ccc(C2Cn3nnc(-c4nc(-c5ccc(OC)c(F)c5)no4)c3CO2)cc1 (centres undefined) | 1040
25 | COc1cccc(CNC2CCN(c3ccc(C(=O)NC4CC4)cn3)C2)c1OC (centres undefined) | 562
26 | Cc1ccc(N2CCN(c3nccn4c(=O)n(CC(=O)Nc5cc(C)cc(C)c5)nc34)CC2)cc1 | 1030
27 | COc1ccc2[nH]cc(CCNC(=O)c3c(-c4cccnc4)noc3C)c2c1 | 667
28 | CCc1ccc(NC(=O)N2CCC(c3nc(C(=O)N4CCCC4)c(C)o3)CC2)cc1 | 870
29 | CCN1c2cc(F)ccc2C(=O)NC12CCN(C(=O)c1cc(OC)cc(OC)c1)CC2 | 813
30 | CCCCOc1ccccc1C1NC(=O)NC(C)=C1C(=O)OCc1ccco1 (centres undefined) | 938
31 | COc1cccc2sc(N(C)CC(=O)N3CCn4c3nc3ccccc34)nc12 | 758
32 | COc1nn(C)cc1C(=O)NCC(=O)Nc1cccc2nsnc12 | 636
33 | Cc1ccc(CNC(=O)CN2CCN(C(=O)Nc3ccc(F)cc3)CC2=O)o1 | 695
34 | CN(C(=O)C(=O)Nc1ccc2nc3n(c(=O)c2c1)CCCCC3)c1cccc(C(F)(F)F)c1 | 819
35 | CCc1ccccc1NC(=O)Cn1nc2cc(C)nc(-c3ccccc3)n2c1=O | 854
36 | COC(=O)c1ccc(N2Cc3cc(Cl)ccc3OCC2=O)cc1 | 877
37 | CC1(C(=O)NC2CCCCC2)CN(S(=O)(=O)c2ccccc2)CC(=O)N1c1cccc(F)c1 (centres undefined) | 940
38 | O=C(NCC1CCCO1)C(=O)NCC(c1ccc2c(c1)OCO2)N1CCOCC1 (centres undefined) | 583
39 | COCC(C)(O)CNC(=O)Nc1c(F)cccc1F (centres undefined) | 595
40 | Cn1ncc2c3ccccc3n(CCCC(=O)NCc3ccccc3)c2c1=O | 810
41 | Cn1c(=O)c2nscc2n(CC(=O)NC2CCCCC2)c1=O | 664
42 | Cc1nnc(-c2ccc3ccn(CC(=O)N4CCN(c5cc(Cl)ccc5C)CC4)c3c2)o1 | 1020
43 | CNC(=O)[C@@H]1C[C@H](Oc2ccccc2)CN1C(=O)C1CCC1 | 680
44 | CCOC(=O)c1c(S(=O)(=O)N2CCC(C(=O)NCc3ccc(C)cc3)CC2)c(C)n(C)c1C | 841
45 | Cc1ccn2cc(C(=O)N3CCN(c4ccccc4F)CC3)nc2c1 | 662
46 | O=C(CCc1c(-c2ccccc2)nc2ccccn12)NCc1cccc(Br)c1 | 691

Row | Structure (SMILES) | RP-LC retention time [s]
47 | COc1ccc(NC(=O)Nc2c(-c3ccc(F)cc3)nc3ccccn23)cc1F | 668
48 | Cc1ccc(CNC(=O)C2(C)CCN(S(=O)(=O)c3ccc(Cl)cc3)CC2)cc1 | 615
49 | CCOC(=O)c1c(C)c(CCC(=O)NC(C)C)n(CC)c1C | 821
50 | CSc1ccc(-c2noc(Cc3nnc(-c4ccc(F)cc4)o3)n2)cc1 | 1070
51 | Cc1ccc(NC(=O)CN2C(=O)CCCc3cc(S(=O)(=O)N4CCCCC4)ccc32)cc1 | 845
52 | CCCNC(=O)c1cc(=O)[nH]c2ccc(F)cc12 | 635
53 | O=C(CN1CCN(Cc2ccc(F)cc2)C1=O)NCc1cccc(Cl)c1 | 846
54 | CCCN(CC1CCOC1)C(=O)Nc1cc(C)ccc1C (centres undefined) | 796
55 | COc1ccc(-c2nnc(Cc3nc(-c4ccccc4)no3)o2)cc1OC | 949
56 | CCOc1ccc(-c2nc(CN3CCN(C(=O)NC(C)C)CC3)c(C)o2)cc1 | 656
57 | Cc1ccccc1CNC(=O)C1(C)CCCN(S(=O)(=O)c2ccccc2)C1 (centres undefined) | 944
58 | Cn1cc(C(=O)NCc2ccc(F)cc2)c2cccnc21 | 721
59 | CCCCOc1ccc(C(=O)N2CCN(c3cc(C)nc(N4CCCC4)n3)CC2)cc1 | 788
60 | Cc1nc(-c2noc(-c3ccccc3)n2)cn1CC(=O)NCc1ccccc1F | 810
61 | O=C(CCc1c[nH]c2ccccc12)Nc1ccc(-c2nnc3n2CCCC3)cc1 | 704
62 | CCN(CC)CCn1c(NCc2ccc(C)cc2)nc2ccccc21 | 584
63 | Fc1ccccc1-c1nc(-c2ccc3c(c2)ncn3CCN2CCCC2)no1 | 629
64 | COc1ccc(NC(=O)N2CCc3nc(-c4ccccc4)sc3C2)cc1OC | 820
65 | CCOC(=O)c1ccc(NC(=O)c2ccc3c(c2)N(CC)C2CCCCN2C3=O)cc1 (centres undefined) | 957
66 | CC1=C(c2ccc(C)c(C)c2)S(=O)(=O)N=C1N1CCCN(C(=O)C2CC2)CC1 | 793
67 | O=C(c1ccc(Br)o1)N1c2ccccc2CC1c1nnc(C2CCOCC2)o1 (centres undefined) | 804
68 | O=C(c1ccsc1)N1CCC(N(C(=O)C2CC2)C2CCOCC2)CC1 | 662
69 | c1ccc(OCCSc2nc3ccccc3[nH]2)cc1 | 625

Row | Structure (SMILES) | RP-LC retention time [s]
70 | COc1ccc(C(C)NC(=O)C2CCN(c3cncnc3N3CCOCC3)CC2)cc1 (centres undefined) | 601
71 | COc1ccc(Nc2c(-c3ccc(N(C)C)cc3)nc3cnccn23)cc1OC | 687
72 | Fc1ccc(-c2nc(-c3ccc4nncn4c3)no2)cc1F | 822
73 | O=C(Nc1ccc2sccc2c1)c1ccc([N+](=O)[O-])s1 | 924
74 | CCCCN1N=C(C(=O)N2CCCCCC2)S(=O)(=O)c2ccc(C)cc21 | 1050
75 | CCOc1cccc(C2CC(c3ccc4c(c3)OCO4)=NC3(CCN(C(C)C)CC3)N2)c1O (centres undefined) | 600
76 | CCOC(=O)c1ccc(NC(=O)Cn2ccc3ccc(-c4nnc(C)o4)cc32)cc1 | 944
77 | CCOC(=O)c1nc(N(CC)c2ccc(OC)cc2)c2ccccc2n1 | 941
78 | Cc1ccc(C)c(NC(=O)c2c(C)sc3ncnc(N4CCCC(C)C4)c23)c1 (centres undefined) | 1240
79 | Cc1cccc(S(=O)(=O)N2CCCC2c2nc(-c3cccc(C(F)(F)F)c3)no2)c1 (centres undefined) | 1200
80 | Cc1c(Cl)cccc1NC1=NS(=O)(=O)c2ccccc21 | 813
81 | O=C(c1ccc(N2CCOCC2)nn1)N1CCN(c2cccc(C(F)(F)F)c2)CC1 | 779
82 | Cc1cccc(NC(=O)CSc2cc(N3CCC(C)CC3)ncn2)c1 | 1040
83 | CCNC(=O)N1[C@H]2CC[C@@H]1c1cnc(-c3ccc(F)cc3)nc1C2 | 768
84 | COc1cc(-c2nc(Cn3cnc4ccccc4c3=O)no2)cc(OC)c1OC | 795
85 | COC(=O)c1cccc(NC(=O)NC2CCN(c3ccccc3)C2=O)c1 (centres undefined) | 769
86 | COC(=O)c1ccc(Cl)cc1NC(=O)N1CCC2(CC1)NC(=O)c1ccccc1O2 | 1000
87 | COc1cc2ncnc(Nc3ccc(F)c(Cl)c3)c2cc1NC(=O)/C=C/CN1CCCCC1 | 704
88 | O=C1CCN(S(=O)(=O)c2ccccc2)CCCN(S(=O)(=O)Cc2ccccc2)CCN1 | 779
89 | CCCN1C(=O)COc2ccc(-c3noc(Cc4ccc(NC(C)=O)cc4)n3)cc21 | 841
